Results as given in paper PMC11324666, “Two novel in vitro assays to screen chemicals for their capacity to inhibit thyroid hormone transmembrane transporter proteins OATP1C1 and OAT4” (Archives of Toxicology, 2024).
Where two headings read alike, the source gives them in different places. One block for each compound: values may come before it.

Experiments:
OATP1C1 [1] = target: T1, OATP1C1 (Homo sapiens, UniProt Q9NYB5); assay: CHO-K1 OATP1C1 TH uptake assay with 125I-T4 tracer; assay type: cell-based
T1 construct: host or cells: CHO-K1
T1 sequence (Q9NYB5 1-712): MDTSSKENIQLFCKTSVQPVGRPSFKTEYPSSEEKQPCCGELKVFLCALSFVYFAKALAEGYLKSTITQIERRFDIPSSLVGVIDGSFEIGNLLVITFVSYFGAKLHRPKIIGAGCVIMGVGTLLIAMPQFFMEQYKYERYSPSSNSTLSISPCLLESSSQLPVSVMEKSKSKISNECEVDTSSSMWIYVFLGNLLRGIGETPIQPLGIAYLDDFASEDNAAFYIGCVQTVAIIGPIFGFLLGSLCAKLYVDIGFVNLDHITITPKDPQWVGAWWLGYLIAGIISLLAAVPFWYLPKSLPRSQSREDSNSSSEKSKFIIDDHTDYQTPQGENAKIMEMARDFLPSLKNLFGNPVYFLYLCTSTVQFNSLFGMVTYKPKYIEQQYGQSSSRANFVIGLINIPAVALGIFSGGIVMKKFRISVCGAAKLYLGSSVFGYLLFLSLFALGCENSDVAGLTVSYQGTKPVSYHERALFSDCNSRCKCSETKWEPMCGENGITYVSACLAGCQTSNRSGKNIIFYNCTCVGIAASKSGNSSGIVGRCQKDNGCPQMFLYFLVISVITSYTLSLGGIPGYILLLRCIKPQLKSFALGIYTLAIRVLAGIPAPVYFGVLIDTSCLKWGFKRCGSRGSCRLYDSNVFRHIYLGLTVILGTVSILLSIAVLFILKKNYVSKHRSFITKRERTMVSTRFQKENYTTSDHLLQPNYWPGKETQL
Description: (§1) MDCK-OAT4 and MDCK-DEST cells were cultured in DMEM:F12 (L-glutamine, 15 mM HEPES) (Gibco) supplemented with (100 µg/mL penicillin + 100 µg/mL streptomycin), 10% fetal calf serum (Gibco) and 2 µg/mL blasticidin (Sigma). CHO-K1 OATP1C1 or WT cells were cultured in F12 nutrient mix (Gibco) supplemented with (100 µg/mL penicillin + 100 µg/mL streptomycin), 10% fetal calf serum (Gibco) and […] G418 (Sigma). All cell cultures were incubated at 37 °C with 5% CO2 saturation until 80% confluency. MDCK-OAT4 and MDCK-DEST cells were seeded in 96 wells plate at a density of 4 × 10^5 cells in 100 µL medium per well and incubated for 24 h before the start of the MDCK-OAT4 TH uptake assay. CHO-K1 OATP1C1 and WT cells were seeded in 96 wells plate at a density of 3 × 10^5 cells in 100 µL medium per well 72 h before the CHO-K1 OATP1C1 TH uptake assay. Medium from CHO-K1 OATP1C1 or WT assay plates was changed to serum-free F12 medium containing 5 mM sodium-butyrate 24 h before start of the CHO-K1 OATP1C1 TH uptake assay to increase transfected expression of SV-40 promotor plasmids.
(§2) Subsequently 10 µL of a tenfold stock of test compound in uptake buffer (solvent concentration 1% v/v) was added to each well. […] Cells were exposed at 37 °C for 20 min (MDCK-OAT4) or 30 min (CHO-K1 OATP1C1), unless stated differently. After exposure, cells were immediately washed with ice-cold PBS supplemented with 0.1% bovine serum albumin (BSA). Subsequently, cells were lysed in 50 µL of 0.1 M NaOH under continuous shaking at room temperature. After 20 min, cell lysates were manually transferred into separate 5 mL polypropylene tubes. One tube was also prepared with 10 µL of the T4 tracer solution. Radioactivity was measured in a Wizard^2 gamma counter (Perkin Elmer).
(§3) For the CHO-K1 OATP1C1 TH uptake assay total of 29 chemicals (Table 1) were selected for the EDC screening based on available literature data. […] The same chemicals were selected for the MDCK-OAT4 TH uptake assay, with the exception of BPF, VRP and TCS. […] The THTMT TH uptake assay was then performed as described earlier. […] A concentration of 100 µM ICG was used as a reference chemical for OATP1C1 and 100 µM LESI for OAT4. At least three independent experiments were performed for each chemical.
(§4) Raw values were normalized to the total amount of radioactivity in the T4 tracer solution. These values were expressed as a percentage of total radioactivity added (or uptake percentage) and used for all further data analysis. Statistically significant differences between the T4 uptake of transfected and wild type cells, in the presence or absence of inhibitor, were determined by two-way ANOVA (α = 5%, two-sided). […] In brief, uptake values were normalized to the median response of the vehicle and positive controls for each plate. […] Statistical analysis were performed using GraphPad Prism version 8 for Windows (GraphPad Software, San Diego, California USA) and SAS 9.3 (SAS Institute, Cary NC).

CHO-K1 OATP1C1 cells = conditions: for cytotoxic effects: at concentrations of the uptake assay, Figure S1; for Cytotoxicity IC10: concentration that inhibits cell viability by 10%, CHO-K1 OATP1C1 cells, 30 min exposure
Description: (§5) Cell viability was assessed through the quantitation of ATP present in cells using the commercially available CellTiter-Glo® luminescent cell viability assay and performed according to the manufacturer’s instruction (Promega, Leiden, the Netherlands). Briefly, cells were seeded as described earlier in opaque-walled clear-bottom 96 well plates. On the day of the experiment, each well was washed with 200 µL phosphate buffered saline (PBS) and exposed to 80 µL of uptake buffer, 10 µL of a tenfold stock of test compound solved in uptake buffer or control and 10 µL of T4 (final concentration 10 nM). 0.1% DMSO was used as a solvent control, while 10% DMSO was used as a positive control. After exposure for the indicated times similar to THTMT TH uptake assay, cells were immediately washed with ice-cold PBS + 0.1%BSA and exposed to 100 µL of the CellTiter-Glo® Reagent. Plates were then shaken on an orbital shaker for 2 min and left to incubate at room temperature for 10 min. Luminescence was measured on a BioTek Cytation 5 microplate reader. […] Each individual experiment was repeated at least twice and contained three technical replicates of each control and concentration tested.
Figure S1. […] Blue dots indicate the plate medians from three or four independent experiments, all control and chemical concentrations were tested in triplicates per plate.

OAT4 = target: T2, OAT4 (Homo sapiens, UniProt Q9NSA0); assay: MDCK-OAT4 TH uptake assay with 125I-T4 tracer; assay type: cell-based; conditions: 10 nM T4, 20 min; for 125I-T4 uptake compared to the vehicle control (range finding): single concentration 10 or 100 µM, below 80% = positive hit; for T4 uptake inhibition BMC20 (M), [CI]: concentration that inhibits 125I-T4 uptake by 20%, brackets = 95% CI
T2 construct: V5 (from pLenti6/V5-DEST); expressed in transfected cells; host or cells: MDCK-1 (lentiviral transduction, blasticidin selection)
T2 sequence (Q9NSA0 1-550): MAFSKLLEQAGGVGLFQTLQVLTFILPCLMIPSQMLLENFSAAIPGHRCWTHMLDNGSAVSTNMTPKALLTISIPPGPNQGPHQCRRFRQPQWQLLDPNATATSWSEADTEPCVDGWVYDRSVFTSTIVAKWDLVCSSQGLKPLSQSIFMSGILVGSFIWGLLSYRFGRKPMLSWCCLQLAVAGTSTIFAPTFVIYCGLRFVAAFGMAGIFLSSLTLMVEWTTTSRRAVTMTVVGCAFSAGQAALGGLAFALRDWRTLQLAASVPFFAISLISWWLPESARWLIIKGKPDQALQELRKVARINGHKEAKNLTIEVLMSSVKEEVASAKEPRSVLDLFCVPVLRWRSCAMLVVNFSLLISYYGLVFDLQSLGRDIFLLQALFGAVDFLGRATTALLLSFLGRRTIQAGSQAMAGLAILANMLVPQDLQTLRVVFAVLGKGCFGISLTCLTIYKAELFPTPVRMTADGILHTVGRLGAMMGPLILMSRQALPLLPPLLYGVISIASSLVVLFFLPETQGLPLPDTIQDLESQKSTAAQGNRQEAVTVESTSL
Description: Subsequently OAT4 in pENTR™/D-TOPO® Vector was shuffled into the pLenti6/V5-DEST vector (Thermo Fisher) using Gateway™ LR Clonase™ II Enzyme mix (Thermo Fisher) according to the manufacture’s protocol.
To generate an OAT4 stable cell line, MDCK-1 cells were plated in 12-well plates with full growth medium and transduced with fresh viral supernatants in the absence of antibiotics in medium. After 2 days, MDCK-1 cells transduced with OAT4 (MDCK-OAT4) or empty vector (MDCK-DEST) were selected in full growth medium supplemented with 2 µg/mL blasticidin and further maintained under blasticidin selection.
as §1, §2
as §3, with “chemical. Each individual experiment contained three technical replicates of each control and concentration tested.” for “chemical.”
as §4

MDCK-OAT4 cells = assay: CellTiter-Glo luminescent cell viability assay in MDCK-OAT4 cells; conditions: concentration that inhibits cell viability by 10%; MDCK-OAT4 cells, 20 min exposure
Description: as §5
Figure S2. […] Blue dots indicate the plate medians from three or four independent experiments, all control and chemical concentrations were tested in triplicates per plate. The black line indicates the best-fit concentrations response curve, the dotted line the corresponding 95% confidence interval.

oatp1c1 [2] = tested on: oatp1c1; set-up: method as in Westholm et al. (2009); conditions: T4 1 nM; ref Westholm et al. (2009); read-out: IC50 of T4 transmembrane transport inhibition; cited from earlier work
[3] = concentration that inhibits 125I-T4 uptake by 20%, 10 nM T4, 30 min, brackets = 95% CI

Compound: Oc1cc(Cl)ccc1Oc1ccc(Cl)cc1Cl [Triclosan]
T4 uptake inhibition BMC20 (M), [CI] (OATP1C1 [1]): 2.30E−06 [1.38E−06; 3.83E−06] M
cytotoxic effects (CHO-K1 OATP1C1 cells): confounded by cytotoxic effects
Cytotoxicity IC10 (CHO-K1 OATP1C1 cells): 0.378 µM

Compound: [CH3][Hg][Cl] [MeHg, Methyl mercury]
125I-T4 uptake compared to the vehicle control (range finding) (OATP1C1 [1]; single concentration 10 or 100 µM, 10 nM T4, 30 min, below 80% = positive hit): ≥ 80%
125I-T4 uptake compared to the vehicle control (range finding) (OAT4): ≥ 80%

T4 uptake inhibition BMC20 (M), [CI] (OATP1C1 [1]; [3]): 4.34E−07 [1.97E−07; 9.56E−07] M
Compound: O=C(O)CSc1nnc(Br)n1-c1ccc(C2CC2)c2ccccc12 [Lesinurad, reference compound]
Cytotoxicity IC10 (MDCK-OAT4 cells): > 100 µM
Cytotoxicity IC10 (CHO-K1 OATP1C1 cells): > 100 µM

Compound: Oc1ccc(C2(c3ccc(O)cc3)CCCCC2)cc1 [Bisphenol Z, Bisphenol-Z]
Cytotoxicity IC10 (CHO-K1 OATP1C1 cells): > 100 µM

Compound: β-Estradiol-3-sulfate [ß-Estrone-3-sulfate, reference compound]
T4 uptake inhibition BMC20 (M), [CI] (OAT4): 1.55E−06 [5.32E−07; 4.51E−06] M
125I-T4 uptake compared to the vehicle control (range finding) (OAT4): below 80%

T4 uptake inhibition BMC20 (M), [CI] (OATP1C1 [1]; [3]): 1.90E−05 [1.28E−05; 2.83E−05] M
Compound: CC(C)(c1ccc(O)cc1)c1ccc(O)cc1 [Bisphenol A, Bisphenol-A]
cytotoxic effects (CHO-K1 OATP1C1 cells): confounded by cytotoxic effects
Cytotoxicity IC10 (CHO-K1 OATP1C1 cells): 4.34 µM

Compound: O=S(=O)(c1ccc(O)cc1)c1ccc(O)cc1 [Bisphenol S, Bisphenol-S]
125I-T4 uptake compared to the vehicle control (range finding) (OAT4): ≥ 80%

uptake of 125I-T4 with excess of unlabeled T4 (OATP1C1 [1]; 1 µM unlabeled T4): quenched the uptake
Compound: NC(Cc1cc(I)c(Oc2cc(I)c(O)c(I)c2)c(I)c1)C(=O)O (stereo not drawn) [T4, Thyroxine, reference compound]

T4 uptake inhibition BMC20 (M), [CI] (OAT4): 3.22E−06 [6.39E−07; 1.62E−05] M
Compound: O=C(O)Cc1ccccc1Nc1c(Cl)cccc1Cl [Diclofenac, reference compound]
IC50 (oatp1c1 [2]): 4 µM
